Patent US20230066946A1, “1,5-DIPHENYLPYRAZOLYL-3-OXYALKYL ACIDS AND 1-PHENYL-5-THIENYLPYRAZOLYL-3-OXYALKYL ACIDS AND THE USE THEREOF FOR CONTROL OF UNWANTED PLANT GROWTH” (Bayer Aktiengesellschaft, priority 2019, published 2023)

Columns and labels:
POLCO [1] = assay: Pre-emergence herbicidal action against POLCO; format: in vivo, Polygonum convolvulus; settings: 320 g/ha, scored visually after about 3 weeks vs untreated controls
Text: (§1) Seeds of mono- and dicotyledonous weed plants are placed in plastic pots in sandy loam soil (doubly sown with one species each of mono- or dicotyledonous weed plants per pot) and covered with soil. The compounds of the invention, formulated in the form of wettable powders (WP) or as emulsion concentrates (EC), are then applied onto the surface of the covering soil as aqueous suspension or emulsion with addition of 0.5% additive at a water application rate equivalent to 600 litres per hectare. After the treatment, the pots are placed in a greenhouse and kept under good growth conditions for the trial plants. After about 3 weeks, the effect of the preparations is scored visually in comparison with untreated controls as percentages. For example, 100% activity=the plants have died, 0% activity=like control plants. [table] Tables 4.1-4.15 below show the effects of selected compounds of the general formula (I) according to Tables 1 to 3 on various harmful plants at an application rate corresponding to 1280 or 320 g/ha, which have been obtained by the aforementioned experimental method.

ECHCG [2] = assay: Pre-emergence herbicidal action against ECHCG; format: in vivo, Echinochloa crus-galli; settings: scored visually after about 3 weeks vs untreated controls, 100% = plants have died, 0% = like control plants
Text: as §1

SETVI [3] = assay: Pre-emergence herbicidal action against SETVI; format: in vivo, Setaria viridis; settings: 1280 g/ha, scored visually after about 3 weeks vs untreated controls
How it was run: (§2)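 Greenhouse pot test on sown, soil-covered weed seeds; spray of WP or EC formulation at 1280 or 320 g/ha onto covering soil. Effect rated visually after about 3 weeks (0% = like control, 100% = dead).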

AMARE [4] = assay: Pre-emergence herbicidal action against AMARE; format: in vivo, Amaranthus retroflexus; settings: scored visually after about 3 weeks vs untreated controls; for Pre-emergence action at 320 g/ha against AMARE in %: 100% = plants have died, 0% = like control plants; for Pre-emergence action against AMARE in %: 1280 g/ha
How it was run: as §2

STEME [5] = assay: Pre-emergence herbicidal action against STEME; format: in vivo, Stellaria media; settings: scored visually after about 3 weeks vs untreated controls
How it was run: as §2

ECHCG [6] = assay: Post-emergence herbicidal action against ECHCG; format: in vivo, Echinochloa crus-galli; settings: 1280 g/ha, post-emergence at one-leaf stage, rated visually after about 3 weeks vs untreated controls
Experimental: (§3) [table] Seeds of mono- and dicotyledonous weed plants are placed in plastic pots in sandy loam soil (twin sowing with one species each of mono- or dicotyledonous weed plants per pot), covered with soil and cultivated in a greenhouse under controlled growth conditions. 2 to 3 weeks after sowing, the test plants are treated at the one-leaf stage. The compounds of the invention, formulated in the form of wettable powders (WP) or as emulsion concentrates (EC), are applied to the green parts of the plants as aqueous suspension or emulsion with addition of 0.5% additive at a water application rate equivalent to 600 litres per hectare. After the test plants have been kept in the greenhouse under optimum growth conditions for about 3 weeks, the activity of the preparations is rated visually in comparison to untreated controls. For example, 100% activity=the plants have died, 0% activity=like control plants. Tables 5.1-5.16 below show the effects of selected compounds of the general formula (I) according to Tables 1 to 3 on various harmful plants at an application rate corresponding to 1280 or 320 g/ha, which have been obtained by the aforementioned experimental method.

SETVI [7] = assay: Post-emergence herbicidal action against SETVI; format: in vivo, Setaria viridis; settings: 1280 g/ha, post-emergence at one-leaf stage, rated visually after about 3 weeks vs untreated controls
Experimental: as §3

AMARE [8] = assay: Post-emergence herbicidal action against AMARE; format: in vivo, Amaranthus retroflexus; settings: visual rating about 3 weeks after treatment
How it was run: (§4)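 Visual % damage (100% = dead, 0% = like untreated control) was scored about 3 weeks after foliar spraying of one-leaf-stage plants grown in sandy loam. Doses were 1280 or 320 g/ha, applied as aqueous WP/EC preparations with 0.5% additive in 600 litres per hectare water.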

MATIN = assay: Post-emergence herbicidal action against MATIN; format: in vivo, Matricaria inodora; settings: visual rating about 3 weeks after treatment
How it was run: as §4

PHBPU = assay: Post-emergence herbicidal action against PHBPU; format: in vivo, Pharbitis purpurea; settings: 320 g/ha, visual rating about 3 weeks after treatment
Experimental: as §3

POLCO [9] = assay: Post-emergence herbicidal action against POLCO; format: in vivo, Polygonum convolvulus; settings: 320 g/ha, visual rating about 3 weeks after treatment
Experimental: as §3

STEME [10] = assay: Post-emergence herbicidal action against STEME; format: in vivo, Stellaria media; settings: visual rating about 3 weeks after treatment
How it was run: as §4

VIOTR = assay: Post-emergence herbicidal action against VIOTR; format: in vivo, Viola tricolor; settings: 320 g/ha, visual rating about 3 weeks after treatment
Experimental: as §3

VERPE [11] = assay: Post-emergence herbicidal action against VERPE; format: in vivo, Veronica persica; settings: 320 g/ha, visual rating about 3 weeks after treatment
Experimental: as §3

VERPE [12] = assay: Pre-emergence herbicidal action against VERPE; format: in vivo, Veronica persica; settings: 320 g/ha, scored visually after about 3 weeks vs untreated controls
Text: as §1

| SMILES | Pre-emergence action against POLCO in % (POLCO [1]) [%] | Pre-emergence action at 1280 g/ha against ECHCG in % (ECHCG [2]) [%] | Pre-emergence action against SETVI in % (SETVI [3]) [%] | Pre-emergence action at 320 g/ha against AMARE in % (AMARE [4]) [%] | Pre-emergence action against AMARE in % (AMARE [4]) [%] | Pre-emergence action against STEME in % (STEME [5]; 1280 g/ha) [%] | Post-emergence action against ECHCG in % (ECHCG [6]) [%] | Post-emergence action against SETVI in % (SETVI [7]) [%] | Post-emergence action against AMARE in % (AMARE [8]; 320 g/ha) [%] | Post-emergence action against AMARE in % (AMARE [8]; 1280 g/ha) [%] | Post-emergence action against MATIN in % (MATIN; 320 g/ha) [%] | Post-emergence action against MATIN in % (MATIN; 1280 g/ha) [%] | Post-emergence action against PHBPU in % (PHBPU) [%] | Post-emergence action against POLCO in % (POLCO [9]) [%] | Post-emergence action against STEME in % (STEME [10]; 1280 g/ha) [%] | Post-emergence action against VIOTR in % (VIOTR) [%] | Post-emergence action against VERPE in % (VERPE [11]) [%] | Pre-emergence action against STEME in % (STEME [5]; 320 g/ha) [%] | Pre-emergence action against VERPE in % (VERPE [12]) [%] | Post-emergence action against STEME in % (STEME [10]; 320 g/ha) [%] |
| --- | --- | --- | --- | --- | --- | --- | --- | --- | --- | --- | --- | --- | --- | --- | --- | --- | --- | --- | --- | --- |
| COC(=O)COc1nn(-c2ccc(Cl)cc2)c(-c2ccccc2)c1Cl [I-001] | 90 | – | – | – | – | – | – | – | – | – | – | – | – | – | – | – | – | – | – | – |
| CCOC(=O)COc1nn(-c2ccc(F)cc2F)c(-c2ccccc2)c1Br [I-079] | 80 | 90 | 100 | 80 | 100 | 100 | 100 | 100 | 80 | 100 | 80 | 100 | 90 | 80 | 100 | 100 | 80 | – | – | – |
| CCOC(=O)COc1nn(-c2ccc(F)cc2F)c(-c2ccc(F)cc2)c1Br [I-081] | 100 | 90 | 100 | 80 | 100 | 100 | 90 | 90 | 90 | 100 | 80 | 100 | 90 | 80 | 100 | 100 | 80 | 80 | 80 | 80 |
| O=C(O)COc1nn(-c2ccccc2F)c(-c2ccccc2)c1Br [I-082] | 80 | – | – | 90 | – | – | – | – | 80 | – | 80 | – | 90 | – | – | 100 | 80 | – | 80 | – |
| CCOC(=O)COc1nn(-c2ccc(F)cc2F)c(-c2ccccc2)c1Cl [I-100] | – | 100 | 100 | 100 | 100 | 100 | 90 | – | 80 | 90 | 80 | 90 | 90 | 90 | 90 | 100 | 90 | 90 | 100 | 80 |
